The record followed here is patent US5760036A, “Aminediol protease inhibitors” (E. R. Squibb & Sons, Inc., priority 1995, dated 1998).

The IC50 is the point on the concentration scale where inhibition reaches its midpoint. What is called inhibition is the percentage by which the read-out fell short of the control.

Like-named read-outs stand apart in the source and are kept apart here.

The target of one assay is T1, HIV protease (Human immunodeficiency virus type 1 group M subtype B, UniProt P04585).
T1 construct: and purified protease
The assay can be described thus: HIV Protease Assay. Type of assay: biochemical. In outline: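 Purified protease cleaved 450 μM octapeptide substrate in 50 mM sodium acetate pH 5.5 with 100 μg/ml BSA for 30 minutes at 37° C; product analyzed by reverse-phase HPLC at UV220 after H3PO4 quench. Inhibitors tested at final 10 μM with 4% DMSO.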

Assay [1] relates to RF strain of HIV (CEM-SS cells). Nature of the assay: Cell Culture Anti-HIV Activity (cell viability, formazan). Type of assay: cell-based. To be noted: CEM-SS cells, RF strain of HIV, multiplicity of infection 0.04, 6 days at 37° C., 450 nm, read-out: HIV (CEM Cells) IC50. In outline: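 CEM-SS cells (5000/well) infected with HIV RF at MOI 0.04, exposed to half-log serial compound dilutions, incubated 6 days at 37° C. Viability read by tetrazolium reduction to formazan, absorbance 450 nm. IC50 is the concentration raising formazan in infected cells to 50% of uninfected, drug-free cells.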

Where [2] appears, read: 10 μM inhibitor, 4% DMSO, 450 μM substrate, pH 5.5, 30 minutes at 37° C., RP-HPLC.
The mark [3] stands for this setting: Human immunodeficiency virus 1, CEM-SS, 144 h.
Where [4] appears, read: pH 5.5, 10 μM inhibitor, 4% DMSO, 450 μM substrate, pH 5.5, 30 minutes at 37° C., RP-HPLC, read-out: HIV Protease % Inhibition at 10 μM.

Regarding `CC(C)(C)OC(=O)N[C@@H](Cc1ccccc1)[C@H](O)CNC[C@@H](O)[C@H](Cc1ccccc1)NC(=O)C(O)(CO)C(C)(C)C` (single isomer, unassigned; isomer a) [Compound 366, [1S-[1R*,2S*(2S*,3R*)]]-[3-[[3-[[2-Hydroxy-2-(hydroxymethyl)-3.3-dimethyl-1-oxobutyl]amino]-2-hydroxy-4-phenylbutyl]amino]-2-hydroxy-1-(phenylmethyl)propyl]carbamic acid. 1.1-dimethylethyl ester, isomer A], the “HIV Protease % Inhibition at 10 μM” value on HIV protease (setting [2]) is recorded as 99%. The IC50 in assay [1] (setting [3]) came out at 9 nM.
As for `CC(C)(CO)OC(=O)N[C@@H](Cc1ccccc1)[C@H](O)CNC[C@@H](O)[C@H](Cc1ccccc1)NC(=O)C1(O)CCCC1(C)C` (single isomer, unassigned; isomer a) [Compound 368, [1S-[1R*,2S*(2S*,3R*)] -[3-[[3-[[(2,2-Dimethyl-1-hydroxycyclopentyl)-carbonyl]amino]-2-hydroxy-4-phenylbutyl]amino]-2-hydroxy-1-(phenylmethyl)propyl]carbamic acid, 2-hydroxy-1,1-dimethylethyl ester, isomer A], on HIV protease (setting [4]), the inhibition at 10 µM stood at 98%. Moreover, in assay [1] (setting [3]), the IC50 was determined as 17 nM.
`CC(C)(C)OC(=O)N[C@@H](Cc1ccccc1)[C@H](O)CNC[C@@H](O)[C@H](Cc1ccccc1)NC(=O)C1NC(=O)OC1(C)C` (single isomer, unassigned; isomer b) [Compound 240, [1S-[1R*,2S*(2S*,3R*)]]-[3-[[3-[[(5,5-Dimethyl-2-oxo-4-oxazolidinyl)carbonyl]amino]-2-hydroxy-4-phenylbutyl]amino]-2-hydroxy-1-(phenylmethyl)propyl]carbamic acid, 1,1-dimethylethyl ester, isomer B]: on HIV protease (setting [2]), the “HIV Protease % Inhibition at 10 μM” value is 99%. For the same compound, in assay [1] (setting [3]), the IC50 was determined as 2000 nM.
Consider `CC(C)(C)OC(=O)N[C@@H](Cc1ccccc1)[C@H](O)CNC[C@@H](O)[C@H](Cc1ccccc1)NC(=O)C(NC(=O)OCc1ccccc1)C(C)(C)O` (single isomer, unassigned; isomer b) [Compound 302, [1S-[1R*,2S*(2S*,3R*)]]-[1-[[[3-[[(1,1-Dimethylethoxy)carbonyl]amino]-2-hydroxy-4-phenylbutyl]amino]-2-hydroxy-1-(phenylmethyl)propyl]amino]carbonyl]-2-hydroxy-2-methylpropyl]carbamic acid, phenylmethyl ester, isomer B], for which the inhibition at 10 µM on HIV protease (setting [4]) came out at 99%. Besides, the IC50 in assay [1] (setting [3]) was 250 nM.
On to `CC(C)(C)OC(=O)N[C@@H](Cc1ccccc1)[C@H](O)CNC[C@@H](O)[C@H](Cc1ccccc1)NC(=O)C(NC(=O)OCc1ccccc1)C(C)(C)CO` (single isomer, unassigned; isomer b) [Compound 309, [1S-[1R*,2S*(2S*, 3R*)]]-[1-[[[3-[[(1,1-Dimethylethoxy)carbonyl]amino]-2-hydroxy-4-phenylbutyl]amino]-2-hydroxy-1-(phenylmethyl)-propyl]amino]carbonyl]-2-(hydroxymethyl)-2-methylpropyl]carbamic acid, phenylmethyl ester. isomer B], for which the “HIV Protease % Inhibition at 10 μM” value at HIV protease (setting [2]) turned out to be 100%. The IC50 in assay [1] was 1800 nM.
For `CC(C)(C)OC(=O)N[C@@H](Cc1ccccc1)[C@H](O)CNC[C@@H](O)[C@H](Cc1ccccc1)NC(=O)C1(O)CCCC1(C)C` (single isomer, unassigned; isomer b) [Compound 322, [1S-[1R*,2S*(2S*,3R*)]]-[3-[[3-[[2,2-Dimethyl-1-hydroxycyclopentyl)-carbonyl]amino]-2-hydroxy-4-phenylbutyl]amino]-2-hydroxy-1-(phenylmethyl)-propyl]carbamic acid, 1,1-dimethylethyl ester, isomer B], the “HIV Protease % Inhibition at 10 μM” value at HIV protease is recorded as 100%. The IC50 in assay [1] turned out to be 20 nM.
For the compound `CC1(C)CCCC1(O)C(=O)N[C@@H](Cc1ccccc1)[C@H](O)CNC[C@@H](O)[C@H](Cc1ccccc1)NC(=O)C1(O)CCCC1(C)C` (single isomer, unassigned; isomer b) [Compound 337], the “HIV Protease % Inhibition at 10 μM” value on HIV protease (setting [2]) is on record as 99%. Further, the IC50 in assay [1] was 290 nM.
With `CC(C)(C)OC(=O)N[C@@H](Cc1ccccc1)[C@H](O)CNC[C@@H](O)[C@H](Cc1ccccc1)NC(=O)C(C)(O)C(C)(C)CO` (single isomer, unassigned; isomer b) [Compound 357, [1S-[1R*,2S*(2S*,3R*)]]-[3-[[3-[(2,4-Dihydroxy-2,3,3-trimethyl-1-oxobutyl)amino]-2-hydroxy-4-phenylbutyl]amino]-2-hydroxy-1-(phenylmethyl)propyl]carbamic acid, 1,1-dimethylethyl ester, isomer B], the “HIV Protease % Inhibition at 10 μM” value at HIV protease turned out to be 99%. Moreover, the IC50 in assay [1] was 110 nM.
Take `CC(C)(C)OC(=O)N[C@@H](Cc1ccccc1)[C@H](O)CNC[C@@H](O)[C@H](Cc1ccccc1)NC(=O)OC(C)(C)C` [Compound 2, [1S-[1R*,2S*(2S*,3R*)]]-[3-[[3-[[(1,1-Dimethylethoxy)carbonyl]amino]-2-hydroxy-4-phenylbutyl]amino]-2-hydroxy-1-(phenylmethyl)propyl]carbamic acid, 1,1-dimethylethyl ester]: the inhibition at 10 µM on HIV protease (setting [4]) turned out to be 100%. The IC50 in assay [1] (setting [3]) was 90 nM.
Regarding `CC(C)(C)OC(=O)N[C@@H](Cc1ccccc1)[C@@H](O)CNC[C@H](O)[C@H](Cc1ccccc1)NC(=O)OC(C)(C)C` [Compound 3, [1S-[1R*,2R*(2R*,3R*)]]-[3-[[3-[[(1,1-Dimethylethoxy)carbonyl]amino]-2-hydroxy-4-phenylbutyl]amino]-2-hydroxy-1-(phenylmethyl)propyl]carbamic acid, 1,1-dimethylethyl ester], at HIV protease (setting [4]), the inhibition at 10 µM came to 0%. Moreover, the IC50 in assay [1] (setting [3]) is greater than 3200 nM.
Consider `CC(C)(C)OC(=O)N[C@@H](Cc1ccccc1)[C@H](O)CNC[C@H](O)[C@H](Cc1ccccc1)NC(=O)OC(C)(C)C` [Compound 5, [1S-[1R*,2S*(2R*,3R*)]]-[3-[[3-[[(1,1-Dimethylethoxy)carbonyl]amino]-2-hydroxy-4-phenylbutyl]amino]-2-hydroxy-1-(phenylmethyl)propyl]carbamic acid, 1,1-dimethylethyl ester], for which the inhibition at 10 µM on HIV protease (setting [4]) turned out to be 41%. Moreover, the IC50 in assay [1] (setting [3]) came to 2800 nM.
The matching figures for `CC(C)(C)OC(=O)N1Cc2ccccc2CC1C(O)CNCC(O)C1Cc2ccccc2CN1C(=O)OC(C)(C)C` (stereo not drawn) [Compound 11, [R-(R*,R*)]-3,3'[Iminobis(1-hydroxy-2,1-ethanediyl)]-bis[2(1H)-isoquinolinecarboxylic acid], bis(1,1-dimethylethyl) ester]: 0% and greater than 6000 nM.
The matching figures for `CC[C@H](C)[C@H](NC(=O)OC(C)(C)C)[C@H](O)CNC[C@@H](O)[C@@H](NC(=O)OC(C)(C)C)[C@@H](C)CC` [Compound 13, [R-(R*,S*)]-[Iminobis[2-hydroxy-1-(1-methylpropyl)-3,1-proyanediyl]]biscarbamic acid, 1,1-dimethylethyl ester]: 45% and 5300 nM.
Regarding `CC(C)(C)OC(=O)N[C@@H](CC1CCCCC1)[C@H](O)CNC[C@@H](O)[C@H](CC1CCCCC1)NC(=O)OC(C)(C)C` [Compound 14, [R-(R*,S*)]-[Iminobis[1-(cyclohexylmethyl)-2-hydroxy-3,1-propanediyl]]-biscarbamic acid, bis(1,1-dimethylethyl) ester], the inhibition at 10 µM on HIV protease (pH 5.5, read-out: HIV Protease % Inhibition at 10 μM) is 100%. The IC50 in assay [1] (setting [3]) was 1100 nM.
